From ChEMBL document CHEMBL4477225, “Development of a cell viability assay to assess drug metabolite structure-toxicity relationships” (Bioorg Med Chem Lett, 2016) come the findings set out here.

Conditions in all cases: recombinant enzyme
In data set [1] the target is T1, Cytochrome P450 3A4 (Homo sapiens, UniProt P08684). The data set can be described thus: Drug activation in human Hep3B cells assessed as human CYP3A4-mediated drug metabolism-induced cytotoxicity measured as decrease in cell viability at 83.8 uM pre-incubated with BSO for 18 hrs followed by incubation with compound for 3 hrs in presence of NADPH measured after 24 hrs in absence of compound, CYP3A4 and NADPH by cell titer-glo luminescence assay relative to BSO alone. Format: ADME, cell-based. (In ATP-based viability assays light output follows the ATP content of the culture.)

The target in data set [2] is T2, Cytochrome P450 2D6 (Homo sapiens, UniProt P10635). The experiment in a line: Drug activation in human Hep3B cells assessed as human CYP2D6-mediated drug metabolism-induced cytotoxicity measured as decrease in cell viability at 193.1 uM pre-incubated with BSO for 18 hrs followed by incubation with compound for 3 hrs in presence of NADPH measured after 24 hrs in absence of compound, CYP3A4 and NADPH by cell titer-glo luminescence assay relative to BSO alone. Format: ADME, cell-based.

For data set [3], the target named is T3, Cytochrome P450 2C9 (Homo sapiens, UniProt P11712). The data set can be described thus: Drug activation in human Hep3B cells assessed as human CYP2C9-mediated drug metabolism-induced cytotoxicity measured as decrease in cell viability at 300 uM pre-incubated with BSO for 18 hrs followed by incubation with compound for 3 hrs in presence of NADPH measured after 24 hrs in absence of compound, CYP3A4 and NADPH by cell titer-glo luminescence assay relative to BSO alone.

The target in data set [4] is T1, Cytochrome P450 3A4. The data set can be described thus: Drug activation in human Hep3B cells assessed as human CYP3A4-mediated drug metabolism-induced cytotoxicity measured as decrease in cell viability at 150.3 uM pre-incubated with BSO for 18 hrs followed by incubation with compound for 3 hrs in presence of NADPH measured after 24 hrs in absence of compound, CYP3A4 and NADPH by cell titer-glo luminescence assay relative to BSO alone. Format: ADME, cell-based.

The target in data set [5] is T2, Cytochrome P450 2D6. The experiment in a line: Drug activation in human Hep3B cells assessed as human CYP2D6-mediated drug metabolism-induced cytotoxicity measured as decrease in cell viability at 7 uM pre-incubated with BSO for 18 hrs followed by incubation with compound for 3 hrs in presence of NADPH measured after 24 hrs in absence of compound, CYP3A4 and NADPH by cell titer-glo luminescence assay relative to BSO alone. Format: ADME, cell-based.

Data set [6] concerns the target T1, Cytochrome P450 3A4. The experiment in a line: Drug activation in human Hep3B cells assessed as human CYP3A4-mediated drug metabolism-induced cytotoxicity measured as decrease in cell viability at 300 uM pre-incubated with BSO for 18 hrs followed by incubation with compound for 3 hrs in presence of NADPH measured after 24 hrs in absence of compound, CYP3A4 and NADPH by cell titer-glo luminescence assay relative to BSO alone.

Data set [7] concerns the target T2, Cytochrome P450 2D6. The experiment in a line: Drug activation in human Hep3B cells assessed as human CYP2D6-mediated drug metabolism-induced cytotoxicity measured as decrease in cell viability at 8.9 uM pre-incubated with BSO for 18 hrs followed by incubation with compound for 3 hrs in presence of NADPH measured after 24 hrs in absence of compound, CYP3A4 and NADPH by cell titer-glo luminescence assay relative to BSO alone. Type of data set: ADME, cell-based.

Data set [8] concerns the target T2, Cytochrome P450 2D6. The data set can be described thus: Drug activation in human Hep3B cells assessed as human CYP2D6-mediated drug metabolism-induced cytotoxicity measured as decrease in cell viability at 44.4 uM pre-incubated with BSO for 18 hrs followed by incubation with compound for 3 hrs in presence of NADPH measured after 24 hrs in absence of compound, CYP3A4 and NADPH by cell titer-glo luminescence assay relative to BSO alone. Type of data set: ADME, cell-based.

Data set [9] addresses T3, Cytochrome P450 2C9. The data set can be described thus: Drug activation in human Hep3B cells assessed as human CYP2C9-mediated drug metabolism-induced cytotoxicity measured as decrease in cell viability at 36.8 uM pre-incubated with BSO for 18 hrs followed by incubation with compound for 3 hrs in presence of NADPH measured after 24 hrs in absence of compound, CYP3A4 and NADPH by cell titer-glo luminescence assay relative to BSO alone. Format: ADME, cell-based.

Data set [10] deals with T1, Cytochrome P450 3A4. The experiment in a line: Drug activation in human Hep3B cells assessed as human CYP3A4-mediated drug metabolism-induced cytotoxicity measured as decrease in cell viability at […] pre-incubated with BSO for 18 hrs followed by incubation with compound for 3 hrs in presence of NADPH measured after 24 hrs in absence of compound, CYP3A4 and NADPH by cell titer-glo luminescence assay relative to BSO alone. Format: ADME, cell-based.

In data set [11] the target is T2, Cytochrome P450 2D6. The experiment in a line: Drug activation in human Hep3B cells assessed as human CYP2D6-mediated drug metabolism-induced cytotoxicity measured as decrease in cell viability at 3.2 uM pre-incubated with BSO for 18 hrs followed by incubation with compound for 3 hrs in presence of NADPH measured after 24 hrs in absence of compound, CYP3A4 and NADPH by cell titer-glo luminescence assay relative to BSO alone. Type of data set: ADME, cell-based.

Data set [12] has as its target T3, Cytochrome P450 2C9. The data set can be described thus: Drug activation in human Hep3B cells assessed as human CYP2C9-mediated drug metabolism-induced cytotoxicity measured as decrease in cell viability at 12.1 uM pre-incubated with BSO for 18 hrs followed by incubation with compound for 3 hrs in presence of NADPH measured after 24 hrs in absence of compound, CYP3A4 and NADPH by cell titer-glo luminescence assay relative to BSO alone. Type of data set: ADME, cell-based.

The target in data set [13] is T1, Cytochrome P450 3A4. The experiment in a line: Drug activation in human Hep3B cells assessed as human CYP3A4-mediated drug metabolism-induced cytotoxicity measured as decrease in cell viability at 242.9 uM pre-incubated with BSO for 18 hrs followed by incubation with compound for 3 hrs in presence of NADPH measured after 24 hrs in absence of compound, CYP3A4 and NADPH by cell titer-glo luminescence assay relative to BSO alone. Format: ADME, cell-based.

The target of data set [14] is T2, Cytochrome P450 2D6. The data set can be described thus: Drug activation in human Hep3B cells assessed as human CYP2D6-mediated drug metabolism-induced cytotoxicity measured as decrease in cell viability at 139.7 uM pre-incubated with BSO for 18 hrs followed by incubation with compound for 3 hrs in presence of NADPH measured after 24 hrs in absence of compound, CYP3A4 and NADPH by cell titer-glo luminescence assay relative to BSO alone. Type of data set: ADME, cell-based.

T1 sequence (P08684 whole entry): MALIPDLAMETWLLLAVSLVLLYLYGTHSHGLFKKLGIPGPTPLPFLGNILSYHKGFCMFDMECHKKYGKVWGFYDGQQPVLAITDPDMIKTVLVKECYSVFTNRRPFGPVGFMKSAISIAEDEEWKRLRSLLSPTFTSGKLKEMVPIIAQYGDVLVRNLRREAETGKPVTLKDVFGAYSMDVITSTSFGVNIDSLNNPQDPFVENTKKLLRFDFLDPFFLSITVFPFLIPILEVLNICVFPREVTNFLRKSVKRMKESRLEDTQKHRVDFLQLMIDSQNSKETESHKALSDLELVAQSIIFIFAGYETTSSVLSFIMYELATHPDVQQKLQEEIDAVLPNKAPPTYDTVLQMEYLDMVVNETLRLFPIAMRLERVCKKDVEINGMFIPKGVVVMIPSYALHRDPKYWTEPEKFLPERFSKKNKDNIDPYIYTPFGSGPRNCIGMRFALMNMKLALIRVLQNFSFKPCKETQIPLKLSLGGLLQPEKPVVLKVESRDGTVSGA
T2 sequence (P10635 whole entry): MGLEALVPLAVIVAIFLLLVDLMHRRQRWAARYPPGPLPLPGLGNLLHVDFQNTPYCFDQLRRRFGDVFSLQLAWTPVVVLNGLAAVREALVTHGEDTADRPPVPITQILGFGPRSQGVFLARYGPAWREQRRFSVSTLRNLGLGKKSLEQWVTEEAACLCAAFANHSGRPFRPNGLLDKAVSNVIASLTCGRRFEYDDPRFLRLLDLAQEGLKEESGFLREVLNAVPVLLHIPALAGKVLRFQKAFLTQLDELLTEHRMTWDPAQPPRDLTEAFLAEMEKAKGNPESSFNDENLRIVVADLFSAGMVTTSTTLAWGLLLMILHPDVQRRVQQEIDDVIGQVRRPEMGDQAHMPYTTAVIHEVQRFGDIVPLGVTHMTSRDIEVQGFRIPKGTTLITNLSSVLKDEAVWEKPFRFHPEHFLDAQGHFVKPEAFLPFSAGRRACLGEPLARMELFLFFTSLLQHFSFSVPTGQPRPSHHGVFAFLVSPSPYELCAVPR
T3 sequence (P11712 whole entry): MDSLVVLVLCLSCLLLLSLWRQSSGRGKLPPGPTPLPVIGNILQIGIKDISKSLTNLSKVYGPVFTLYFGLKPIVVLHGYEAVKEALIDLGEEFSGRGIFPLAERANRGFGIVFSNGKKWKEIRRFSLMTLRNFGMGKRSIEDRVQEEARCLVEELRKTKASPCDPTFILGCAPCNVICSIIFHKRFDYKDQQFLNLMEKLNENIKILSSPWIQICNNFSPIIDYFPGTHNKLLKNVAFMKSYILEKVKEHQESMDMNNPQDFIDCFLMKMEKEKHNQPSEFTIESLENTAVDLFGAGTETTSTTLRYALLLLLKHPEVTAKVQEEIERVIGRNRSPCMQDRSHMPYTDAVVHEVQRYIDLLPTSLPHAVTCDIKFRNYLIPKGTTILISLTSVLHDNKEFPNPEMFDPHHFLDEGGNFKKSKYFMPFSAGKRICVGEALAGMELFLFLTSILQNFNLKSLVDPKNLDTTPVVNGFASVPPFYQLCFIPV

For `OC(CCN1CCCCC1)(c1ccccc1)C1CC2C=CC1C2` (stereo unspecified) [BIPERIDEN], the results for the “fold change (FC)” value in data set [1] and in data set [2] were 3.6 and 1.6, respectively.
For the compound `CN(C)CCC(c1ccc(Br)cc1)c1ccccn1` (stereo unspecified) [BROMPHENIRAMINE], the FC in data set [3] is 1. Further, the results for the “fold change (FC)” value in data set [4] and in data set [5] were 2 and 43, respectively.
For `CN(C)CCC(c1ccc(Cl)cc1)c1ccccn1` (stereo unspecified) [CHLORPHENIRAMINE], the FC in data set [3] and in data set [6] was 1 in each case. In [7], the “fold change (FC)” value was 33.6.
`Clc1ccccc1C(c1ccccc1)(c1ccccc1)n1ccnc1` [CLOTRIMAZOLE]: the “fold change (FC)” value in data set [8] is 0.9; in data set [9], 1.1.
Turning to `C=C(CC)C(=O)c1ccc(OCC(=O)O)c(Cl)c1Cl` [ETHACRYNIC ACID], the FC in [10] was determined as 3.7. Further, the “fold change (FC)” value stood at 2.7 in data set [11] and 0.7 in [12].
For `Cc1nc(-c2ccc(OCC(C)C)c(C#N)c2)sc1C(=O)O` [FEBUXOSTAT], in [3], the FC amounted to 1. For the same compound, the “fold change (FC)” value in data set [13] is reported as 1.2; in [14], 2.1.
